Reference: patent US7122523B2, “Methods for inhibiting tumor cell proliferation” (University of Southern California, priority 2001, dated 2006)

Experiments:
Format in all cases: cell-based
[1] = system: Human Primary Tumor Cells; assay: Clonigenic assay, Chi Square analysis of tumor-type specificity over all samples
Experimental: (§1) Primary and metastatic tumors obtained from the Department of Obstetrics and Gynecology Pathology Section and the Surgical Pathology Division of Los Angeles County/University of Southern California were minced into pieces less than 2 mm in diameter in the presence of RPMI-1640 (Gibco, Grand Island, NTY) containing 15% heat-inactivated fetal calf serum. Each gram of tumor tissue was treated with 10–20 mL of enzyme medium, consisting of Hanks' balanced salt solution with 0.03% DNAse (500 Kunitz units/mL; Sigma Chemical Co., St. Louis, Mo.) and 0.14% collagenase type I (Sigma). Tumor fragments were stirred for 90 minutes at 37° C. in the presence of 5% CO2. After enzymatic digestion, the free cells were decanted through 40-gauge mesh strainers and centrifuged at 200×g for 10 minutes. The supernatant was removed and viable cells were resuspended in RPMI 1640. The cell number was determined using a hematocytometer and 0.04% trypan blue dye. The cells were then centrifuged and the pellet resuspended in RPMI 1640 at 5×10^5 cells/mL.
(§2) Human cancer cells were obtained from operative specimens provided by the Division of Gynecologic Oncology, Department of Obstetrics and Gynecology, or the Department of Surgical Pathology of Los Angeles County/University of Southern California School of Medicine. Tumor cells were maintained in vitro in RPMI 1640 medium supplemented with 15% heat-inactivated fetal calf serum, 100 μg/mL streptomycin, fungizone 25 μg/mL, and 100 μ/mL penicillin.
(§3) Cells were cultured on an underlayer of 0.5% agarose (Bethesda Research Labs, Bethesda, Md.) prepared from a 3% stock of agarose with added penicillin (100 units/mL), streptomycin (100 μg/mL), and fungizone (1.25 μg/mL) (GIBCO) as per a modification of an established procedure. The cloning efficiency of this assay varied depending upon the source of the tissue. One milliliter of this 0.5% agarose mixture was added to each 16×16-mm well of a 24-well plate and the plates were refrigerated for 10 minutes at 4° C. Cells were suspended in 0.6% agarose in RPMI-1640 supplemented with antibiotics and 15% fetal calf serum. One aliquot (0.5 mL) of cell suspension was added to each underlaver at a final concentration of 5×10^4 cells/well, and the plates were refrigerated 10 minutes at 4° C.
(§4) After a 72-hour incubation at 37° C., 5 μCi of tritiated thymidine (specific activity 18.2 Ci/mmol; New England Nuclear, Boston, Mass.) was layered over each well, and the plates were returned to the incubator for an additional 24 hours, incorporation of thymidine was terminated by transferring the agarose layers to 10-mL glass centrifuge tubes (Kimble, Division of Owens, Ill.) and boiling the tubes for 15 minutes in a water bath. The volume was brought to 8 mL, the tubes were centrifuged, and the pellets were washed with phosphate-buffered saline and then dissolved in 3 mL of 0.85 N KOH for 1 hour at 80° C. The tubes were cooled on ice and the hydrolysates were precipitated by adding 30 μL of 1% human serum albumin (Sigma) and 2.4 mL of ice-cold trichloroacetic acid. After overnight storage at 4° C., precipitates were collected by centrifugation. Pellets were washed with 5% trichloroacetic acid, dissolved in 0.3 mL of 0.075 N KOH, and transferred to scintillation vials to which 5 mL of Liquiscint (National Diagnostics, Somerville, N.J.) were added. Radioactivity per vial was measured in a Nuclear-Chicago liquid scintillation counter.

[2] = system: Endometrial adenocarcinoma; assay: Human tumor cell clonigenic assay (tritiated thymidine incorporation); conditions: for Effect of AII(1–7) on proliferation: AII(1–7) 0.1 ng/ml–10 μg/ml; for IC50 (ng/ml) of AII(1–7): proliferation
Experimental: as §1, §2, §3, §4

[3] = system: Metastatic, recurrent moderately to poorly differentiated colonic adenocarcinoma; assay: as above; conditions: Sample 34, Metastatic, AII(1–7) 0.1 ng/ml–10 μg/ml
Experimental: as §1, §2, §3, §4

Uterine Carcinosarcoma = assay: as above; conditions: Sample 17, Uterine Carcinosarcoma; AII(1–7) 0.1 ng/ml–10 μg/ml
Experimental: as §1, §2, §3, §4

[4] = system: Ovarian Serous papillary carcinoma; assay: as above; conditions: Sample 31, Ovarian Serous papillary carcinoma
Experimental: as §1, §2, §3, §4

[5] = system: Ovarian carcinoma-clear cell; assay: as above; conditions: Sample 3, Ovarian carcinoma-clear cell; AII(1–7) 0.1 ng/ml–10 μg/ml
Experimental: as §1, §2, §3, §4

[6] = system: Squamous Cell Carcinoma of the Cervix, gr 3; assay: as above; conditions: Sample 12, Squamous Cell Carcinoma of the Cervix, AII(1–7) 0.1 ng/ml–10 μg/ml
Experimental: as §1, §2, §3, §4

[7] = system: Metastatic colon adenocarcinoma; assay: as above; conditions: Sample 26, Metastatic colon adenocarcinoma; AII(1–7) 0.1 ng/ml–10 μg/ml
Experimental: as §1, §2, §3, §4

Leiomyosarcoma = assay: as above; conditions: Sample 1, Leiomyosarcoma; AII(1–7) 0.1 ng/ml–10 μg/ml
Experimental: as §1, §2, §3, §4

Colon adenocarcinoma = assay: as above; conditions: Sample 25, Colon adenocarcinoma
Experimental: as §1, §2, §3, §4

Breast adenocarcinoma = assay: as above; conditions: for Effect of AII(1–7) on proliferation: AII(1–7) 0.1 ng/ml–10 μg/ml; for IC50 (ng/ml) of AII(1–7): proliferation
Experimental: as §1, §2, §3, §4

[8] = system: Cervical squamous cell carcinoma; assay: as above
Experimental: as §1, §2, §3, §4

[9] = system: Metastatic Ovarian Papillary Carcinoma to Omentum; assay: as above; conditions: Sample 13, Metastatic Ovarian Papillary Carcinoma to Omentum; AII(1–7) 0.1 ng/ml–10 μg/ml
Experimental: as §1, §2, §3, §4

[10] = system: Ovarian papillary serous carcinoma; assay: as above; conditions: Sample 2, Ovarian papillary serous carcinoma
Experimental: as §1, §2, §3, §4

[11] = system: Ovarian Cancer-High Grade Clear Cell Carcinoma; assay: as above; conditions: Sample 16, Ovarian Cancer-High Grade Clear Cell Carcinoma; AII(1–7) 0.1 ng/ml–10 μg/ml
Experimental: as §1, §2, §3, §4

[12] = system: Colonic adenocarcinoma, Gr 3–4, moderately to poorly differentiated; assay: as above; conditions: Sample 36, Colonic adenocarcinoma
Experimental: as §1, §2, §3, §4

Ovarian adenocarcinoma = assay: as above; conditions: for Effect of AII(1–7) on proliferation: AII(1–7) 0.1 ng/ml–10 μg/ml; for IC50 (ng/ml) of AII(1–7): proliferation
Experimental: as §1, §2, §3, §4

[13] = system: Serous tumor of low malignant potential; assay: as above; conditions: Sample 6, Serous tumor of low malignant potential; AII(1–7) 0.1 ng/ml–10 μg/ml
Experimental: as §1, §2, §3, §4

[14] = system: Recurrent moderately differentiated colonic adenocarcinoma; assay: as above; conditions: Sample 19, Recurrent moderately differentiated colonic adenocarcinoma; AII(1–7) 0.1 ng/ml–10 μg/ml
Experimental: as §1, §2, §3, §4

[15] = system: Invasive, moderately differentiated adenocarcinoma of colon; assay: as above; conditions: Sample 29, Invasive, AII(1–7) 0.1 ng/ml–10 μg/ml
Experimental: as §1, §2, §3, §4

[16] = system: Metastatic uterine carcinosarcoma to the ovary; assay: as above; conditions: Sample 5, Metastatic uterine carcinosarcoma to the ovary; AII(1–7) 0.1 ng/ml–10 μg/ml
Experimental: as §1, §2, §3, §4

[17] = system: Cystic poorly differentiated endometroid carcinoma of ovary; assay: as above; conditions: Sample 30, Cystic poorly differentiated endometroid carcinoma of ovary; AII(1–7) 0.1 ng/ml–10 μg/ml
Experimental: as §1, §2, §3, §4

[18] = Sample 4, Endometrial adenocarcinoma
[19] = Sample 8, Endometrial adenocarcinoma
[20] = Sample 11, Endometrial adenocarcinoma
[21] = Sample 18, Endometrial adenocarcinoma
[22] = Sample 22, Endometrial adenocarcinoma
[23] = Sample 23, Endometrial adenocarcinoma
[24] = Sample 7, Breast adenocarcinoma
[25] = Sample 10, Breast adenocarcinoma
[26] = Sample 20, Breast adenocarcinoma
[27] = Sample 21, Breast adenocarcinoma
[28] = Sample 24, Breast adenocarcinoma
[29] = Sample 28, Breast adenocarcinoma
[30] = Sample 27, Ovarian adenocarcinoma
[31] = Sample 32, Ovarian adenocarcinoma

CC[C@H](C)[C@H](NC(=O)[C@H](Cc1ccc(O)cc1)NC(=O)[C@@H](NC(=O)[C@H](CCCNC(=N)N)NC(=O)[C@@H](N)CC(=O)O)C(C)C)C(=O)N[C@@H](Cc1c[nH]cn1)C(=O)N1CCC[C@H]1C(=O)O [AII(1–7), Asp-Arg-Val-Tyr-Ile-His-Pro]
tumors affected (proliferation decreased) ([1]; All adenocarcinoma: 14 decreased, 8 not affected): 63.6% | tumors affected (proliferation decreased) ([1]; Breast infiltrating ductal adenocarcinoma: 4 decreased, 2 not affected): 66.7% | tumors affected (proliferation decreased) ([1]; Uterine adenocarcinoma and breast infiltrating ductal adenocarcinoma: 9 decreased, 4 not affected): 69.2% | tumors affected (proliferation decreased) ([1]; Uterine adenocarcinoma: 5 decreased, 2 not affected): 71.4% | tumors with decreased proliferation ([1]; Uterine, ovarian and breast adenocarcinomas: 11 decreased, 5 not affected): 68.8% | tumors affected (proliferation decreased) ([1]; remaining tumors not adenocarcinoma: 2 decreased, 10 not affected): 16.7% | tumors affected (proliferation decreased) ([1]; remaining tumors not of breast infiltrating ductal adenocarcinoma origin: 12 decreased, 16 not affected): 42% | tumors affected (proliferation decreased) ([1]; remaining tumors not of uterine adenocarcinoma origin: 11 decreased, 16 not affected): 40.7% | tumors affected (proliferation decreased) ([1]; remaining tumors not of uterine or breast adenocarcinoma origin: 7 decreased, 14 not affected): 33.3% | tumors with decreased proliferation ([1]; remaining tumors not of uterine, ovarian or breast adenocarcinoma origin: 5 decreased, 13 not affected): 27.8% | Effect of AII(1–7) on proliferation [2, 18]: Decreased | IC50 (ng/ml) of AII(1–7) [2, 18]: 1.0 ng/mL | Effect of AII(1–7) on proliferation [2, 19]: Decreased | IC50 (ng/ml) of AII(1–7) [2, 19]: 1.0 ng/mL | Effect of AII(1–7) on proliferation ([2]; Sample 9, Endometrial adenocarcinoma): Decreased | Effect of AII(1–7) on proliferation [2, 20]: No Effect | IC50 (ng/ml) of AII(1–7) [2, 20]: No Effect | Effect of AII(1–7) on proliferation [2, 21]: No Effect | IC50 (ng/ml) of AII(1–7) [2, 21]: No Effect | Effect of AII(1–7) on proliferation [2, 22]: Decreased | IC50 (ng/ml) of AII(1–7) [2, 22]: 0.1 ng/mL | Effect of AII(1–7) on proliferation [2, 23]: Decreased | IC50 (ng/ml) of AII(1–7) [2, 23]: 4.0 ng/mL | Effect of AII(1–7) on proliferation [3]: No Effect | Effect of AII(1–7) on proliferation (Uterine Carcinosarcoma): No Effect | Effect of AII(1–7) on proliferation ([4]; AII(1–7) 0.1 ng/ml–10 μg/ml): Decreased | IC50 (ng/ml) of AII(1–7) ([4]; proliferation): 2.34 ng/mL | Effect of AII(1–7) on proliferation [5]: No Effect | Effect of AII(1–7) on proliferation [6]: No Effect | Effect of AII(1–7) on proliferation [7]: Variable | Effect of AII(1–7) on proliferation (Leiomyosarcoma): No Effect | Effect of AII(1–7) on proliferation (Colon adenocarcinoma; AII(1–7) 0.1 ng/ml–10 μg/ml): Decreased | IC50 (ng/ml) of AII(1–7) (Colon adenocarcinoma; proliferation): 4.75 ng/mL | Effect of AII(1–7) on proliferation (Breast adenocarcinoma; [24]): Decreased | IC50 (ng/ml) of AII(1–7) (Breast adenocarcinoma; [24]): 2.73 ng/mL | Effect of AII(1–7) on proliferation (Breast adenocarcinoma; [25]): No Effect | IC50 (ng/ml) of AII(1–7) (Breast adenocarcinoma; [25]): No Effect | Effect of AII(1–7) on proliferation (Breast adenocarcinoma; [26]): Decreased | IC50 (ng/ml) of AII(1–7) (Breast adenocarcinoma; [26]): 0.3 ng/mL | Effect of AII(1–7) on proliferation (Breast adenocarcinoma; [27]): No Effect | IC50 (ng/ml) of AII(1–7) (Breast adenocarcinoma; [27]): No Effect | Effect of AII(1–7) on proliferation (Breast adenocarcinoma; [28]): Decreased | IC50 (ng/ml) of AII(1–7) (Breast adenocarcinoma; [28]): 4.25 ng/mL | Effect of AII(1–7) on proliferation (Breast adenocarcinoma; [29]): Decreased | IC50 (ng/ml) of AII(1–7) (Breast adenocarcinoma; [29]): 2.97 ng/mL | IC50 (ng/ml) of AII(1–7) ([8]; Sample 37, Cervical squamous cell adenocarcinoma, proliferation): 2.73 ng/mL | Effect of AII(1–7) on proliferation ([8]; Sample 37, Cervical squamous cell carcinoma, AII(1–7) 0.1 ng/ml–10 μg/ml): Decreased | Effect of AII(1–7) on proliferation [9]: No Effect | Effect of AII(1–7) on proliferation ([10]; AII(1–7) 0.1 ng/ml–10 μg/ml): Decreased | IC50 (ng/ml) of AII(1–7) ([10]; proliferation): 3.0 ng/mL | Effect of AII(1–7) on proliferation [11]: No Effect | Effect of AII(1–7) on proliferation ([12]; AII(1–7) 0.1 ng/ml–10 μg/ml): Decreased | IC50 (ng/ml) of AII(1–7) ([12]; proliferation): 2.55 ng/mL | Effect of AII(1–7) on proliferation (Ovarian adenocarcinoma; [30]): Decreased | IC50 (ng/ml) of AII(1–7) (Ovarian adenocarcinoma; [30]): 3.6 ng/mL | Effect of AII(1–7) on proliferation (Ovarian adenocarcinoma; [31]): Decreased | IC50 (ng/ml) of AII(1–7) (Ovarian adenocarcinoma; [31]): 3.4 ng/mL | Effect of AII(1–7) on proliferation (Ovarian adenocarcinoma; Sample 33, Ovarian adenocarcinoma): No Effect | Effect of AII(1–7) on proliferation [13]: No Effect | Effect of AII(1–7) on proliferation [14]: No Effect | Effect of AII(1–7) on proliferation [15]: No Effect | Effect of AII(1–7) on proliferation [16]: Equivocal | Effect of AII(1–7) on proliferation [17]: No Effect
